Key:
Type in all cases: binding
Settings in all cases: Compound Concentration 10 µM
panel of 442 kinases [1] = molecular target: T1, panel of 442 kinases (Homo sapiens, UniProt P36888, K663Q)
T1 construct: purchased KINOMEscan
T1 sequence (P36888 27-993 K663Q): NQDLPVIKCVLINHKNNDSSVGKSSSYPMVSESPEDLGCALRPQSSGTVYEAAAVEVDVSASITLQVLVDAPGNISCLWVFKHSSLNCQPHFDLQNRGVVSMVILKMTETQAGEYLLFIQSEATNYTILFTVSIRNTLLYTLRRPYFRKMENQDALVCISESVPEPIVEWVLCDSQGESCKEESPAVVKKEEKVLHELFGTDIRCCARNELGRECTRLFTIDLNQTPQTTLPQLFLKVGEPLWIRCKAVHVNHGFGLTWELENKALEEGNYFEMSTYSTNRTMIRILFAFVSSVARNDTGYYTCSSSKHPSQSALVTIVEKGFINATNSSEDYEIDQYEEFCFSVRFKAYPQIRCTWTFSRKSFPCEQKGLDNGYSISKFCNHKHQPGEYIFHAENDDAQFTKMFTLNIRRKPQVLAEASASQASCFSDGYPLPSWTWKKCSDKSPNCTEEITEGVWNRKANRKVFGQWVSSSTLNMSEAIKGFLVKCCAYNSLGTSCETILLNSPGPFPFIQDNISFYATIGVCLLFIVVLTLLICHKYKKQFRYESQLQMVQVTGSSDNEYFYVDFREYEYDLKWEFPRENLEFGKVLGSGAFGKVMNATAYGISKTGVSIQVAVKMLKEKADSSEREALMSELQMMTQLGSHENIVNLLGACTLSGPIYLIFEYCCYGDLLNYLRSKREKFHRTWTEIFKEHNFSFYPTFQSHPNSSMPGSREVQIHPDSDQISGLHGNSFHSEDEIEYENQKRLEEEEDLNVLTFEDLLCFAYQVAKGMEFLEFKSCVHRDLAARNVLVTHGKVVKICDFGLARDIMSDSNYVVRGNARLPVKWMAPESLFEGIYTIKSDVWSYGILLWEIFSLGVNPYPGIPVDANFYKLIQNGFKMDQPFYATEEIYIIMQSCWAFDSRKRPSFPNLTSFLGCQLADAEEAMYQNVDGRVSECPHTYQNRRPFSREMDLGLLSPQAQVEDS
Text: (§1) We assessed the selectivity of members of this scaffold using the KINOMEscan methodology across a near comprehensive panel of 442 kinases [[18,27]].

panel of 442 kinases [2] = molecular target: T2, panel of 442 kinases (Homo sapiens, UniProt P27361)
T2 construct: purchased KINOMEscan
T2 sequence (P27361 whole entry): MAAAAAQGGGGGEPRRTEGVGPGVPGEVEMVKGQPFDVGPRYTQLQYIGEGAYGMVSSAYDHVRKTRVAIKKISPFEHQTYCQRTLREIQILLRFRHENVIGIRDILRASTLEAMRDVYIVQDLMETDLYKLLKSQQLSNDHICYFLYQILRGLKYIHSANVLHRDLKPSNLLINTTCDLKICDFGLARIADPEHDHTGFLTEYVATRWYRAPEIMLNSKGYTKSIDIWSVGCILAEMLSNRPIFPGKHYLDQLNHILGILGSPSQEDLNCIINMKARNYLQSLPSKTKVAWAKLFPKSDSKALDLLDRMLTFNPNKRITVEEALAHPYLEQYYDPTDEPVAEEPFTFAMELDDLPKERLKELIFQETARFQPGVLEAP
Text: as §1

panel of 442 kinases [3] = molecular target: T3, panel of 442 kinases (Homo sapiens, UniProt Q02750)
T3 construct: purchased KINOMEscan
T3 sequence (Q02750 whole entry): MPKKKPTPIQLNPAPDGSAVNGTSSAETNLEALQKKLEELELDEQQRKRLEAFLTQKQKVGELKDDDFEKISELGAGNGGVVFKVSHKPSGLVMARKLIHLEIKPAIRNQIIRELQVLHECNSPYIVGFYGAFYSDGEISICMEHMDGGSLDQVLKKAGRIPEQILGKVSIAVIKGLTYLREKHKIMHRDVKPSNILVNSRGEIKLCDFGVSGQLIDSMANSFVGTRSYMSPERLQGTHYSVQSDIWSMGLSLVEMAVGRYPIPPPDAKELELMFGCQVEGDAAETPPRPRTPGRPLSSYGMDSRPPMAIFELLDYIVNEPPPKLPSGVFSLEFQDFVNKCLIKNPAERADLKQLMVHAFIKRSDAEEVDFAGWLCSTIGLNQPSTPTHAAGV
Text: as §1

## CCOc1cc(C(=O)N2CCC(N3CCN(C)CC3)CC2)ccc1Nc1ncc2c(n1)N(C1CCCC1)c1ccccc1C(=O)N2C [Compound 26]
Panel of 442 kinases [1]
  KINOMEscan: FLT3(K663Q): 100
Panel of 442 kinases [2]
  KINOMEscan: ERK1: 100
Panel of 442 kinases [3]
  KINOMEscan: MEK1: 100

## COc1cc(C(=O)N2CCC(N3CCN(C)CC3)CC2)ccc1Nc1ncc2c(n1)N(C1CCCC1)c1ccccc1C(=O)N2C [Compound 25, 11-cyclopentyl-2-((2-methoxy-4-(4-(4-methylpiperazin-1-yl)piperidine-1-carbonyl)phenyl)amino)-5-methyl-5H-benzo[e]pyrimido[5,4-b][1,4]diazepin-6(11H)-one]
Panel of 442 kinases [1]
  KINOMEscan: FLT3(K663Q): 100
Panel of 442 kinases [2]
  KINOMEscan: ERK1: 96
Panel of 442 kinases [3]
  KINOMEscan: MEK1: 68

## COc1cc(C(=O)N2CCC(N3CCN(C)CC3)CC2)ccc1Nc1ncc2c(n1)N1CCc3cccc(c31)C(=O)N2C [Compound 24]
Panel of 442 kinases [1]
  KINOMEscan: FLT3(K663Q): 100
Panel of 442 kinases [3]
  KINOMEscan: MEK1: 75

## COc1cc(C(=O)N2CCC(N3CCN(C)CC3)CC2)ccc1Nc1ncc2c(n1)N(C)c1ccccc1C(=O)N2C [15 (LRRK2-IN-1)]
Panel of 442 kinases [1]
  KINOMEscan: FLT3(K663Q): 97
Panel of 442 kinases [2]
  KINOMEscan: ERK1: 100
Panel of 442 kinases [3]
  KINOMEscan: MEK1: 100
